This note sets out measurements from patent US11976058B2, “Aromatic derivatives, preparation methods, and medical uses thereof” (Bioardis LLC, priority 2019, dated 2024).

Like-named read-outs stand apart in the source and are kept apart here. A value given as a limit tells only on which side of the number the result lay.

The test system of experiment [1] is MAPK phosphorylation in Hep3B cells stimulated with FGF19. As to the kind of experiment: FGFR4 pMAPK AlphaLISA SureFire Ultra assay. The class given is cell-based. The following applies: serum-starved, compound 1 hour, FGF19 100 ng/ml for 4 hours, read-out: Potency (IC50), FGFR4 pMAPK AlphaLISA. The source says: (§1) Cell line: Hepatocellular carcinoma cell line Hep3B (ATCC, Cat #HB-8064).
In normal liver, circulating FGF19 drives liver cell proliferation and regulates bile acid production. However aberrant expression of FGF19 in the liver drives HCC tumorigenesis, upregulates MAPK phosphorylation in FGF19-amplified malignant liver cells. AlphaScreen SureFire technology allows the detection of phosphorylated proteins in cellular lysates in a highly sensitive, quantitative assay. In these assays, sandwich antibody complexes, which are only formed in the presence of analyte, are captured by AlphaScreen Donor and Acceptor beads, bringing them into close proximity. The excitation of the Donor bead provokes the release of singlet oxygen molecules that triggers a cascade of energy transfer in the Acceptor beads, resulting in the emission of light at 520-620 nm.
Hep3B cells were plated at a density of 1×10^4/ml cells in a 96-well plate (Corning #3599), with 100 uL per well of MEM Medium (Gibco Cat #11095-080) supplemented with 10% fetal bovine serum; 1% Penicillin-Streptomycin, and cultured overnight at 37° C., 5% CO2. Starve Hep3B cells in serum-free medium (SFM) supplemented with 0.2% BSA and incubate the cells again overnight at 37° C., 5% CO2. Various concentrations of the test compound (prepared in 2x SFM) were added to the wells of the cell plate and then incubated for 1 hour at 37° C., 5% CO2. 50 μL of FGF19 in SFM was added to each well of the cell plate with a final FGF19 concentration of 100 ng/ml, and cells treated with FGF19 were stimulated for 4 hours at 37° C., 5% CO2. 5 μL of freshly prepared Donor Mix and Acceptor Mix were sequentially added to the cell plate, each followed with 1 hour of incubation at 25° C., 5% CO2. Read the cell plate on an Alpha Technology-compatible plate reader at 570 nm AlphaScreen, using standard AlphaLISA settings. The percent (%) inhibition=((ZPE−Alpha-Signal)/(ZPE−HPE))*100% where the meanings of HPE and ZPE are as provided below.
HPE: Hundred Percent Effect, negative control well without FGF19 nor compound. Final concentration of DMSO is 0.1%.
ZPE: Zero Percent Effect, positive control well without compound. Final concentration of FGF19 is 100 ng/mL, DMSO is 0.1%.
The concentrations and percent inhibition values for a test compound were plotted and the concentration of the compound required to achieve 50% inhibition (IC50) was determined with a four-parameter logistic dose response equation. Dose-response curves were generated using Prism (GraphPad Software, La Jolla, CA, US) to calculate IC50 values for each compound tested.
(In general: In Alpha technology, singlet oxygen from a donor bead excites a nearby acceptor bead.)

Another experiment concerns the target T1, human FGFR4 (Homo sapiens, UniProt P22455).
T1 construct: human FGFR4 cytoplasmic domain (460-802); GST (N); purchased Carna Biosciences 08-136
As to the kind of experiment: FGFR4 enzymatic assay (HTRF KinEASE-TK). The class given is biochemical. Particulars: wild-type human FGFR4 cytoplasmic domain (460-802), GST-tag; 60 min preincubation at 25° C.; ATP 200 μM; read-out: Potency (IC50), FGFR4 enzymatic assay. The procedure: The ability of compounds to inhibit human FGFR4 tyrosine kinase activities was determined using a commercially available HTRF® KinEASE™-TK kit (CISBIO, Cat #62TK0PEC) according to the manufacturer's protocol. Wild-type human FGFR4 cytoplasmic domain (460-802) with N-terminal GST-tag was purchased from Carna Biosciences (Carna, Cat #08-136) and used in the kinase enzymatic assay. This assay, run in a 384-well plate format, is a generic method for measuring tyrosine kinase activities using one substrate and a universal detection system. It involves two steps: (1) Enzymatic step: the biotin labeled TK Substrate is incubated with the kinase and then ATP is added to start the enzymatic reaction; during this step, FGFR4 will phosphorylate the TK Substrate-biotin. (2) Detection step: The TK-Antibody labeled with Eu^3+-Cryptate can recognize the phosphorylated TK Substrate-biotin. When the streptavidin-XL665 conjugate binds the biotin, a FRET signal will be detected. Briefly, human FGFR4 (0.25 μg/ml) in the enzymatic buffer solutions (250 mM HEPES, pH7.0, 0.1% NaN3, 0.05% BSA, 0.5 mM Orthovanadate) were mixed with various concentrations of the test compound (dissolved in 100% DMSO). These solutions were incubated for 60 min at 25° C., and subsequently a mixture of substrate peptide and ATP was added with the final peptide and ATP concentrations at 0.3 μM and 200 μM respectively. The final reaction mixture of enzyme-substrate-ATP-compound was incubated for 40 min at 37° C. Meanwhile the detection mixture containing the TK-antibody and Streptavidin-XL665 diluted in the detection buffer (50 mM HEPES, pH7.0, with additives) was prepared, and added to the reaction mixture at final concentrations of 25 nM and 18.5 nM respectively. After incubation for 60 min at 25° C., the FRET signal of the final solution was measured at 665 nm and 612 nm emissions on a TECAN Spark 10M instrument (TECAN). The percent (%) inhibition at each concentration of a compound was calculated relative to the FRET signal in the Max and Min control wells contained within each assay plate. The Max control wells contained enzyme and substrate as 0% inhibition, and the Min control wells only contained substrate without enzyme as 100% inhibition. The concentrations and percent inhibition values for a test compound are plotted and the concentration of the compound required to achieve 50% inhibition (IC50) was determined with a four-parameter logistic dose response equation. Dose-response curves were generated using Prism (GraphPad Software, La Jolla, CA, US) to calculate IC50 values for each compound tested.
For orientation: Time-resolved FRET reads energy transfer from a long-lived donor to a nearby acceptor.

The next experiment deals with Hep3B cells. Nature of the experiment: Cell-based FGFR4 proliferation assay (CellTiter-Glo). Particulars: incubated with test compound for 3 days, CellTiter-Glo luminescence, read-out: Potency (IC50), Hep3B cell proliferation. As to the method:
Hepatocellular carcinoma cell line Hep3B (ATCC, Cat #HB-8064) were cultured at 37° C., 5% CO2 in ATCC-formulated Eagle's Minimum Essential Medium supplemented with 10% fetal bovine serum; 1% Penicillin-Streptomycin.
as §1
In this assay, Hep3B cells are seeded in 384-well microplates, and after exposure to experimental compounds for […], CellTiter-Glo® Luminescent Cell Viability Assay kit (Promega, Cat #G7572) are used to determine the number of viable cells in the culture based on quantitation of the ATP present, which signals the presence of metabolically active cells. Luminescent signal is proportional to the amount of ATP present. The amount of ATP is directly proportional to the number of cells present in the culture, allowing drug-induced effects on cell proliferation to be measured.
Hep3B cells were plated at a density of 4×10^4/ml cells in a 384-well black/clear microplate with 20 μL per well of MEM Medium (Gibco Cat. #11095-080) supplemented with 10% fetal bovine serum; 1% Penicillin-Streptomycin, and cultured overnight at 37° C., 5% CO2. Various concentrations of the test compound (dissolved in 100% DMSO) were added to the wells of the cell plate. The cells were incubated with the test compound for 3 days at 37° C., 5% CO2. 5 μL of CellTiter-Glo® Reagent was added to each well of the cell plate. The cell plate was incubated for 5 min at 25° C. on a plate shaker (IKA MTS 2/4) at 300 rpm. Luminescence signals were read on a TECAN Spark 10M instrument (TECAN). […] The concentrations and percent inhibition values for a test compound were plotted and the concentration of the compound required to achieve 50% inhibition (IC50) is determined with a four-parameter logistic dose response equation. Dose-response curves were generated using Prism (GraphPad Software, La Jolla, CA, US) to calculate IC50 values for each compound tested.

T1 sequence (P22455 460-802): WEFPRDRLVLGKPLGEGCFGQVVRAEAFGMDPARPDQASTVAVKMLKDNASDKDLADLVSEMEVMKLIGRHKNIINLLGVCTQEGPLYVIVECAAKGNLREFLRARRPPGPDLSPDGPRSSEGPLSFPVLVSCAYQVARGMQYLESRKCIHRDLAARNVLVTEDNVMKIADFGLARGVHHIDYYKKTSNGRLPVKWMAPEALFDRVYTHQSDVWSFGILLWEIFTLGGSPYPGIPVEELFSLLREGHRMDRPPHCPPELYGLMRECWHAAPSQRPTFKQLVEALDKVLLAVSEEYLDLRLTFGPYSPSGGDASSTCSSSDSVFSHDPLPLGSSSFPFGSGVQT

With `C=CC(=O)Nc1c[nH]nc1-c1n[nH]c2c1CCC(c1cc(OC)cc(OC)c1F)C2` (single isomer, unassigned) [Compound S15-P3, N-(3-(6-(2-fluoro-3,5-dimethoxyphenyl)-4,5,6,7-tetrahydro-1H-indazol-3-yl)-1H-pyrazol-4-yl)acrylamide], the IC50 was below 10 nM in experiment [1] (Homo sapiens, Hep3B); 10 to 100 nM on human FGFR4; 10 to 100 nM with Hep3B cells (Homo sapiens, Hep3B, 72 h).
`C=CC(=O)Nc1cnn(CC)c1-c1n[nH]c2c1CC[C@H](c1c(F)c(OC)cc(OC)c1F)C2` [Compound S14-P2, (S)—N-(5-(6-(2,6-difluoro-3,5-dimethoxyphenyl)-4,5,6,7-tetrahydro-1H-indazol-3-yl)-1-ethyl-1H-pyrazol-4-yl) acrylamide]: the IC50 was below 10 nM in experiment [1] (Homo sapiens, Hep3B); below 10 nM at human FGFR4; 10 to 100 nM with Hep3B cells (Homo sapiens, Hep3B, 72 h).
Consider `C=CC(=O)Nc1cnn(C)c1-c1n[nH]c2c1CCC[C@@H](c1c(F)c(OC)cc(OC)c1F)C2` (single isomer, unassigned) [Compound S4-P1], for which the IC50 in experiment [1] (Homo sapiens, Hep3B) was below 10 nM; on human FGFR4, below 10 nM; with Hep3B cells (Homo sapiens, Hep3B, 72 h) it was below 10 nM.
Turning to `C=CC(=O)Nc1cnn(C)c1-c1n[nH]c2c1CCC1(C2)OCc2c(OC)cc(OC)c(F)c21` (stereo not shown) [Compound S9, N-(5-(7′-fluoro-4′,6′-dimethoxy-1,4,5,7-tetrahydro-3′H-spiro[indazole-6,1′-isobenzofuran]-3-yl)-1-methyl-1H-pyrazol-4-yl)acrylamide], the IC50 in experiment [1] (Homo sapiens, Hep3B) was above 100 nM; at human FGFR4 it was 10 to 100 nM; in the experiment on Hep3B cells (Homo sapiens, Hep3B, 72 h) it was above 100 nM.
Regarding `C=CC(=O)Nc1cn(C)nc1-c1n[nH]c2c1CCCC(c1cc(OC)cc(OC)c1F)C2` (single isomer, unassigned) [Compound S12-P4, N-(3-(7-(2-fluoro-3,5-dimethoxyphenyl)-1,4,5,6,7,8-hexahydrocyclohepta[c]pyrazol-3-yl)-1-methyl-1H-pyrazol-4-yl) acrylamide], the IC50 (in experiment [1]; on human FGFR4; in the experiment on Hep3B cells) was below 10 nM in each case.
Regarding `[2H]C([2H])([2H])n1ncc(NC(=O)C=C)c1-c1n[nH]c2c1CCC(c1c(F)c(OC)cc(OC)c1F)C2` (single isomer, unassigned) [Compound S16-P2, N-(5-(6-(2,6-difluoro-3,5-dimethoxyphenyl)-4,5,6,7-tetrahydro-1H-indazol-3-yl)-1-(methyl-d3)-1H-pyrazol-4-yl)acrylamide], the IC50 at human FGFR4 is below 10 nM; with Hep3B cells, 10 to 100 nM.
On to `C=CC(=O)Nc1ncn(C)c1-c1n[nH]c2c1CCC(c1c(F)c(OC)cc(OC)c1F)C2` (single isomer, unassigned) [Compound S3-P1, N-(5-(6-(2,6-Difluoro-3,5-dimethoxyphenyl)-4,5,6,7-tetrahydro-1H-indazol-3-yl)-1-methyl-1H-imidazol-4-yl) Acrylamide], for which the IC50 on human FGFR4 is above 100 nM; in the experiment with Hep3B cells (Homo sapiens, Hep3B, 72 h), above 100 nM.
Regarding `C=CC(=O)Nc1c[nH]nc1-c1n[nH]c2c1CCC(c1c(F)c(OC)cc(OC)c1F)C2` (single isomer, unassigned) [Compound S15-P2, N-(3-(6-(2,6-difluoro-3,5-dimethoxyphenyl)-4,5,6,7-tetrahydro-1H-indazol-3-yl)-1H-pyrazol-4-yl)acrylamide], the IC50 on human FGFR4 and in the experiment with Hep3B cells was below 10 nM each time.
In the case of `C=CC(=O)Nc1cn(CCN(C)C)nc1-c1n[nH]c2c1CCC[C@@H](c1c(F)c(OC)cc(OC)c1F)C2` [Compound S32, (R)—N-(3-(7-(2,6-difluoro-3,5-dimethoxyphenyl)-1,4,5,6,7,8-hexahydrocyclohepta[c]pyrazol-3-yl)-1-(2-(dimethylamino)ethyl)-1H-pyrazol-4-yl)acrylamide], the IC50 was below 10 nM at human FGFR4 and below 10 nM in the experiment with Hep3B cells (Homo sapiens, Hep3B, 72 h).
On to `C=CC(=O)Nc1cn(CCN(C)C)nc1-c1n[nH]c2c1CCC[C@H](c1c(F)c(OC)cc(OC)c1F)C2` [Compound S31, (S)—N-(3-(7-(2,6-difluoro-3,5-dimethoxyphenyl)-1,4,5,6,7,8-hexahydrocyclohepta[c]pyrazol-3-yl)-1-(2-(dimethylamino)ethyl)-1H-pyrazol-4-yl)acrylamide], for which the IC50 at human FGFR4 was below 10 nM; in the experiment with Hep3B cells (Homo sapiens, Hep3B, 72 h) it was 10 to 100 nM.
For the compound `C=CC(=O)Nc1cnn(C)c1-c1n[nH]c2c1COC(c1c(F)c(OC)cc(OC)c1F)C2` (single isomer, unassigned) [Compound S6-P1, N-(5-(6-(2,6-difluoro-3,5-dimethoxyphenyl)-1,4,6,7-tetrahydropyrano[4,3-c]pyrazol-3-yl)-1-methyl-1H-pyrazol-4-yl) acrylamide], the IC50 at human FGFR4 was above 100 nM; in the experiment on Hep3B cells (Homo sapiens, Hep3B, 72 h), above 100 nM.
On to `C=CC(=O)NC1CCOCC1c1n[nH]c2c1CC[C@H](c1c(Cl)c(OC)cc(OC)c1Cl)C2` (single isomer, unassigned) [Compound S7-P2], for which the IC50 on human FGFR4 was above 100 nM.
